ChEMBL document CHEMBL1641589, “Phosphoramidate pronucleotides of cytostatic 6-aryl-7-deazapurine ribonucleosides” (Bioorg Med Chem, 2011)

What was measured:
[1] = Cytotoxicity against human Hs578 cells after 5 days by SRB assay; assay type: functional; details: Hs578, 120 h
HCT-116 = assay: Cytotoxicity against human HCT116 cells after 5 days by SRB assay; assay type: functional; details: HCT-116, 120 h
DU-145 = assay: Cytotoxicity against human DU145 cells after 5 days by SRB assay; assay type: functional; details: DU-145, 120 h
HepG2 = assay: Cytotoxicity against human HepG2 cells after 3 days by XTT assay; assay type: functional, cell-based; details: HepG2, 72 h
CCRF-CEM [2] = assay: Cell cycle arrest in human CCRF-CEM cells assessed as accumulation at G1 phase at IC50 concentration using propidium iodide staining by flow cytometry relative to control; assay type: functional
CCRF-CEM [3] = assay: Cell cycle arrest in human CCRF-CEM cells assessed as increased of cellular debris level at IC50 concentration using propidium iodide staining by flow cytometry relative to control; assay type: functional
CCRF-CEM [4] = assay: Cell cycle arrest in human CCRF-CEM cells assessed as accumulation at S phase at IC50 concentration using propidium iodide staining by flow cytometry relative to control; assay type: functional
NCI-H23 = assay: Cytotoxicity against human NCI-H23 cells after 5 days by SRB assay; assay type: functional; details: NCI-H23, 120 h
[5] = Cytotoxicity against human HeLaS3 cells after 3 days by XTT assay; assay type: functional, cell-based; details: HeLa S3, 72 h
CCRF-CEM [6] = assay: Cytotoxicity against human CCRF-CEM cells after 3 days by XTT assay; assay type: functional, cell-based; details: 72 h
HL-60 = assay: Cytotoxicity against human HL60 cells after 5 days by SRB assay; assay type: functional; details: HL-60, 120 h
CCRF-CEM [7] = assay: Cell cycle arrest in human CCRF-CEM cells assessed as accumulation at G2/M phase at IC50 concentration using propidium iodide staining by flow cytometry relative to control; assay type: functional
[8] = Permeability from basolateral to apical side of human Caco2 cells at 10 uM after 60 to 120 mins by HPLC analysis; assay type: ADME, cell-based; details: Caco-2
[9] = Permeability from apical to basolateral side of human Caco2 cells at 10 uM after 60 to 120 mins by HPLC analysis; assay type: ADME, cell-based; details: Caco-2
[10] = Permeability from apical to basolateral side at 10 uM after 60 to 120 mins by HPLC analysis; assay type: ADME; details: not told
[11] = Efflux ratio of permeability from basolateral to apical side over apical to basolateral side in human Caco2 cells at 10 uM after 60 to 120 mins by HPLC analysis; assay type: ADME, cell-based; details: Caco-2

Compound	GI50 [1] [µM]	GI50 (HCT-116) [µM]	GI50 (DU-145) [µM]	IC50 (HepG2) [µM]	Activity (CCRF-CEM [2]) [%]	Activity (CCRF-CEM [3]) [%]	Activity (CCRF-CEM [4]) [%]	GI50 (NCI-H23) [µM]	IC50 [5] [µM]	IC50 (CCRF-CEM [6]) [µM]	GI50 (HL-60) [µM]	Activity (CCRF-CEM [7]) [%]	Papp B→A at 10 µM [8] [×10⁻⁶ cm/s]	Papp A→B at 10 µM [9] [×10⁻⁶ cm/s]	Papp A→B at 10 µM [10] [×10⁻⁶ cm/s]	efflux ratio at 10 µM [11]
C[C@H](NP(=O)(OC[C@H]1O[C@@H](n2ccc3c(-c4ccsc4)ncnc32)[C@H](O)[C@@H]1O)Oc1ccccc1)C(=O)OCc1ccccc1 (stereo partly specified)	7.56	7.51	3.57	4.58	35.9	22.2	54.2	7.44	5.45	> 10	> 10	9.9	–	–	–	–
OC[C@H]1O[C@@H](n2ccc3c(-c4cccc5c4oc4ccccc45)ncnc32)[C@H](O)[C@@H]1O	> 10	> 10	–	> 10	–	–	–	–	> 10	> 10	> 10	–	–	–	–	–
C[C@H](NP(=O)(OC[C@H]1O[C@@H](n2ccc3c(-c4ccoc4)ncnc32)[C@H](O)[C@@H]1O)Oc1ccccc1)C(=O)OCc1ccccc1 (stereo partly specified)	1.1	1.42	1.09	2.01	37.5	21.5	54	5.19	1.31	3.11	> 10	8.4	–	–	–	–
CCOC(=O)[C@H](C)NP(=O)(OC[C@H]1O[C@@H](n2ccc3c(-c4cccs4)ncnc32)[C@H](O)[C@@H]1O)Oc1ccccc1 (stereo partly specified)	9.6	> 10	> 10	1.53	–	–	–	10.9	5.93	> 10	> 10	–	9.62	0.76	33.8	12.7
COC(=O)[C@H](C)NP(=O)(OC[C@H]1O[C@@H](n2ccc3c(-c4ccoc4)ncnc32)[C@H](O)[C@@H]1O)Oc1ccccc1 (stereo partly specified)	> 10	7.95	3.86	3.61	–	–	–	> 10	7.84	> 10	> 10	–	–	–	–	–
CCOC(=O)[C@H](C)NP(=O)(OC[C@H]1O[C@@H](n2ccc3c(-c4ccoc4)ncnc32)[C@H](O)[C@@H]1O)Oc1ccccc1 (stereo partly specified)	5.97	9.06	9.05	2.96	–	–	–	8.28	4.89	> 10	> 10	–	–	–	–	–
OC[C@H]1O[C@@H](n2ccc3c(-c4cccs4)ncnc32)[C@H](O)[C@@H]1O	–	–	–	1.19	–	–	–	–	0.29	8.8	1.2	–	9.31	1.57	34.1	5.9
CCOC(=O)[C@H](C)NP(=O)(OC[C@H]1O[C@@H](n2ccc3c(-c4ccccc4)ncnc32)[C@H](O)[C@@H]1O)Oc1ccccc1 (stereo partly specified)	> 10	> 10	–	> 10	–	–	–	–	> 10	> 10	> 10	–	–	–	–	–
COC(=O)[C@H](C)NP(=O)(OC[C@H]1O[C@@H](n2ccc3c(-c4cccc5c4oc4ccccc45)ncnc32)[C@H](O)[C@@H]1O)Oc1ccccc1 (stereo partly specified)	> 10	> 10	–	> 10	–	–	–	–	> 10	> 10	> 10	–	–	–	–	–
COC(=O)[C@H](C)NP(=O)(OC[C@H]1O[C@@H](n2ccc3c(-c4cccs4)ncnc32)[C@H](O)[C@@H]1O)Oc1ccccc1 (stereo partly specified)	6.59	6.22	3.23	1.41	–	–	–	6.79	2.51	8.47	> 10	–	9.75	0.74	35.1	13.3
OC[C@H]1O[C@@H](n2ccc3c(-c4ccsc4)ncnc32)[C@H](O)[C@@H]1O	–	–	–	3.22	–	–	–	–	–	–	> 40	–	–	–	–	–
OC[C@H]1O[C@@H](n2ccc3c(-c4ccccc4)ncnc32)[C@H](O)[C@@H]1O	3.1	5.7	0.075	> 10	–	–	–	–	4.1	1	–	–	–	–	–	–
OC[C@H]1O[C@@H](n2ccc3c(-c4ccoc4)ncnc32)[C@H](O)[C@@H]1O	–	–	–	1.72	–	–	–	–	–	–	1.5	–	–	–	–	–
CCOC(=O)[C@H](C)NP(=O)(OC[C@H]1O[C@@H](n2ccc3c(-c4ccsc4)ncnc32)[C@H](O)[C@@H]1O)Oc1ccccc1 (stereo partly specified)	> 10	> 10	> 10	> 10	–	–	–	> 10	> 10	> 10	> 10	–	–	–	–	–
C[C@H](NP(=O)(OC[C@H]1O[C@@H](n2ccc3c(-c4cccc5c4oc4ccccc45)ncnc32)[C@H](O)[C@@H]1O)Oc1ccccc1)C(=O)OCc1ccccc1 (stereo partly specified)	> 10	> 10	–	> 10	–	–	–	–	> 10	> 10	> 10	–	–	–	–	–
C[C@H](NP(=O)(OC[C@H]1O[C@@H](n2ccc3c(-c4ccccc4)ncnc32)[C@H](O)[C@@H]1O)Oc1ccccc1)C(=O)OCc1ccccc1 (stereo partly specified)	> 10	> 10	–	> 10	–	–	–	–	> 10	> 10	5.65	–	–	–	–	–
C[C@H](NP(=O)(OC[C@H]1O[C@@H](n2ccc3c(-c4cccs4)ncnc32)[C@H](O)[C@@H]1O)Oc1ccccc1)C(=O)OCc1ccccc1 (stereo partly specified)	1.42	0.68	0.989	0.88	30.7	49.5	57.9	5.12	1.56	2.09	–	11.5	13.2	1.1	29.9	12
OC[C@H]1O[C@@H](n2ccc3c(-c4ccco4)ncnc32)[C@H](O)[C@@H]1O	–	–	–	0.47	–	–	–	–	–	–	0.81	–	–	–	–	–
COC(=O)[C@H](C)NP(=O)(OC[C@H]1O[C@@H](n2ccc3c(-c4ccccc4)ncnc32)[C@H](O)[C@@H]1O)Oc1ccccc1 (stereo partly specified)	> 10	> 10	> 10	> 10	–	–	–	> 10	> 10	> 10	> 10	–	–	–	–	–
CCOC(=O)[C@H](C)NP(=O)(OC[C@H]1O[C@@H](n2ccc3c(-c4cccc5c4oc4ccccc45)ncnc32)[C@H](O)[C@@H]1O)Oc1ccccc1 (stereo partly specified)	> 10	> 10	–	> 10	–	–	–	–	> 10	> 10	> 10	–	–	–	–	–
